Laboratory results reported in US10201623B2, “HSP90-targeted cardiac imaging and therapy” (Memorial Sloan-Kettering Cancer Center, priority 2013, dated 2019).

Tests used:
[1] = stability of 124I-PUH71 in formulation; type: physicochemical; conditions: formulated in 5% ethanol in saline (0.9%)
Text: ^124I-PUH71 was produced in formulation. The radioactive half-life is 4.2 days.

[2] = system: MDA-MB-468 human breast cancer tumors; assay: micro PET of 124I-PUH71 in mice bearing MDA-MB-468 tumors; type: in vivo
Description: FIG. 4: [^124I]-PUH71 PET in mice bearing a xenografted tumor. a) Representative PET scan of [^124I]-PUH71 in MDA-MB-468 tumor-bearing mice. Location of the tumor is indicated by a red arrow. […] Representative data is shown.
We injected mice bearing MDA-MB-468 human breast cancer tumors with trace amounts of ^124I-PUH71, and imaged with the micro PET at 1, 4 and 24 hours post injection. […] The results are illustrated in FIG. 4.

heart muscle = assay: 124I-PUH71 PET-CT cardiac imaging in patients; type: in vivo, human
Description: Exemplary Procedure Using ^124I-PUH71 (Compound A) The day before the administration of ^124I-PUH71, potassium iodide was administered to the subject to be imaged to minimize the amount of radioactivity in the thyroid. A dose of KI was administered before ^124I-PUH71 was injected in the vein of the arm of the subject through a catheter. A subject was typically administered one tracer-dose of ^124I-PUH71 5% ethanol and 0.9% NaCl, which is < 1/500th of the NOAEL limit derived from rodents using the cold PUH71. A dose of up to 5.5 mCi of ^124I-PUH71 were administered intravenously. ^124I-PUH71 scans were performed immediately, at 3-4 hours, 20-24 hours, and 48-72 hours after injection of the radiotracer. A 30-45 minute scanning time-period is typical for clinical PET studies. Image was acquired on a PET-CT scanner. A low-dose CT was obtained immediately prior to PET imaging; the 0-hour CT is applied to the three PET datasets rapidly-acquired during the first 30 minutes post-injection. Uptake of the PUH71 by heart muscle in 12 patients are illustrated in FIG. 2. The cardiac uptake is plotted on the y-axis, expressed in terms of the standardized uptake value (SUV), here using the SUV mean parameter. The time after injection is plotted on the x-axis, in minutes. Data shown here is from PET scans obtained 0, 10, 20 and ˜180 minutes after tracer injection. […] In 1 patient, the cardiac uptake was less distinct, but the PET imaging methodology was suboptimal compared to the other studies. […] EKG-synchronization, or ‘EKG-gating’, is standard practice in cardiac imaging, for improving the quality of heart-imaging, and it is expected that results will further improve after EKG gating is added. Without intention to be limited by theory, the bits of variation in the SUV could be due to (1) the lack of EKG-gating and (2) the lack of proper attenuation correction. […] The EKG-gating and attenuation correction techniques are standard practice in cardiac nuclear imaging art.

Hsp90 = assay: saturation binding of 131I-PU-H71 in prostate cancer cell lines; conditions: several prostate cancer cell lines
[3] = patients, single iv tracer injection, PET-CT

Compound: CC(C)NCCCn1c(Sc2cc3c(cc2[124I])OCO3)nc2c(N)ncnc21 [^124I-PUH71]
- stability in formulation [1]: stable, in formulation, for several days
- clearance from the healthy heart ([2]; MDA-MB-468 tumor-bearing mice, heart and blood pool similar profile): rapid clearance
- uptake in the heart (PET) ([2]; MDA-MB-468 tumor-bearing mice, no cardiac disease expected): no distinct uptake
- retention in tumors ([2]; micro PET at 1, 4 and 24 hours post injection): retained in tumors even at 24 h p.i.
- route of clearance of excess radioligand ([2]; tumor-bearing mice): cleared via the liver and GI tract

Compound: CC(C)NCCCn1c(Sc2cc3c(cc2I)OCO3)nc2c(N)ncnc21 [Compound A]
- patients whose heart musculature demonstrated visually-distinct uptake (heart muscle; PET scans 0, 10, 20 and ~180 minutes after tracer injection, no EKG-gating): 11 out of 12
- clearance from the bloodstream (heart muscle; human): rapid clearance
- absorption and retention in the human heart (heart muscle; human heart): rapid absorption and sustained retention
- persistence of visually-distinct cardiac uptake (heart muscle; [3]): 3 to 4 h
- time after injection at which uptake in the heart is maximized (heart muscle; [3]): less than 10 minutes
- time for which cardiac signal intensity is maintained (heart muscle; [3]): ≥ 3 h

Compound: CC(C)NCCCn1c(Sc2cc3c(cc2[131I])OCO3)nc2c(N)ncnc21 [^131I-PUH71]
- selectivity of binding to Hsp90 (Hsp90): bound, selectively
- Bmax (Hsp90; saturable binding): 3 to 7 million sites, per cell
